From patent publication EP1561465A2, “Methods of use of fluoroquinolone compounds against bacteria” (LG Life Sciences, Ltd., priority 1999, dated 2001)
Values after ≈ are worked out from the molar mass of the structure shown. Values joined by “and” are separate entries in the source; they are usually repeats but may differ in a detail not shown here. Equal entries are not always repeated. Where two headings read alike, the source gives them in different places.

How the values were obtained:
Assay type in all cases: cell-based
Streptococcus pneumoniae = assay: MIC by NCCLS broth microdilution, 1100 Japanese clinical isolates 1997-1998; conditions: for MIC90 / MIC50 / MIC: Streptococcus pneumoniae; for MIC90: read-out: MIC90; for MIC50: read-out: MIC50; for MIC: Streptococcus pneumoniae quinolone resistant
Streptococcus pyogenes = assay: as above; conditions: Streptococcus pyogenes (n=51)
Proteus vulgaris = assay: as above
Providencia rettgeri = assay: as above
[1] = tested on: Gram negative anaerobic pathogens and facultative anaerobic pathogens; assay: MIC by agar dilution, Brucella HK agar with 5% laked sheep blood, anaerobic reference strains
Escherichia coli = assay: MIC by agar dilution (NCCLS), 322 nosocomial Gram negative isolates, Athens 1998; conditions: n = 57 isolates
Proteus mirabilis = assay: as above; conditions: Proteus mirabilis; n = 57 isolates
Enterococcus faecalis = assay: MIC by agar macrodilution (NCCLS), 373 Gram positive isolates, Athens 1998
[2] = Streptococcus pneumoniae amoxicillin susceptible (n=35)
[3] = Streptococcus pneumoniae erythromycin resistant (n=34)
[4] = Streptococcus pneumoniae erythromycin susceptible (n=11)

With `CO/N=C1\CN(c2nc3c(cc2F)c(=O)c(C(=O)O)cn3C2CC2)CC1CN` (racemic) [Gemifloxacin, (R,S)-7-(3-aminomethyl-4-methoxyiminopyrrolidin-1-yl)-1-cyclopropyl-6-fluoro-4-oxo-1,4-dihydro-1,8-naphthyridine-3-carboxylic acid] the MIC90 (Streptococcus pneumoniae; Streptococcus pneumoniae amoxicillin resistant (n=40)) was 0.032 µg/mL (≈ 0.0822 µM), the MIC50 (Streptococcus pneumoniae; [2]) was 0.016 µg/mL (≈ 0.0411 µM) and the MIC90 (Streptococcus pneumoniae; [2]) was 0.032 µg/mL (≈ 0.0822 µM). The MIC50 (Streptococcus pneumoniae; [3]) was 0.016 µg/mL (≈ 0.0411 µM), the MIC90 (Streptococcus pneumoniae; [3]) was 0.032 µg/mL (≈ 0.0822 µM) and the MIC50 (Streptococcus pneumoniae; [4]) was 0.032 µg/mL (≈ 0.0822 µM). For the same compound, the MIC90 (Streptococcus pneumoniae; [4]) was 0.032 µg/mL (≈ 0.0822 µM), the MIC (Streptococcus pneumoniae; strain TMS1) was 0.032 µg/mL (≈ 0.0822 µM) and the MIC (Streptococcus pneumoniae; strain TMS2) was 0.5 µg/mL (≈ 1.28 µM). For the same compound, the “activity higher than that of the other quinolones” value (Streptococcus pneumoniae; quinolone-resistant S. pneumoniae) was 2-128 fold, the MIC90 (Streptococcus pyogenes) was 0.063 µg/mL (≈ 0.162 µM) and the “MIC Range” value (Streptococcus pyogenes) was 0.016 to 0.125 µg/mL. For the same compound, the MIC50 (Streptococcus pyogenes; read-out: MIC50) was 0.032 µg/mL (≈ 0.0822 µM), the MIC50 (Proteus vulgaris; Proteus vulgaris) was 0.125 µg/mL (≈ 0.321 µM) and the “MIC Range” value (Proteus vulgaris; Proteus vulgaris (n=25)) was 0.063 to 1 µg/mL. It also gave an MIC90 (Proteus vulgaris; Proteus vulgaris (n=25), read-out: MIC90) of 0.25 µg/mL (≈ 0.642 µM), an MIC50 (Providencia rettgeri; Providencia rettgeri) of 0.125 µg/mL (≈ 0.321 µM) and an MIC90 (Providencia rettgeri; Providencia rettgeri (n=12)) of 8 µg/mL (≈ 20.5 µM). For the same compound, the “MIC Range” value (Providencia rettgeri; Providencia rettgeri (n=12)) was 0.063 to 16 µg/mL, the MIC [1] was 1 µg/mL and 0.125 µg/mL and the MIC ([1]; Bacteroides eggerthii, ATCC27754, Bacteroides eggerthii ATCC27754, read-out: MIC) was 4 µg/mL (≈ 10.3 µM). For the same compound, the MIC ([1]; Bacteroides fragilis, ATCC25285, Bacteroides fragilis ATCC25285, read-out: MIC) was 0.5 µg/mL (≈ 1.28 µM), the MIC ([1]; Bacteroides fragilis, Bacteroides fragilis GA15562, read-out: MIC) was 0.25 µg/mL (≈ 0.642 µM) and the MIC ([1]; Bacteroides fragilis, Bacteroides fragilis GA-I0558, read-out: MIC) was 0.5 µg/mL (≈ 1.28 µM). For the same compound, the MIC ([1]; Bacteroides fragilis, Bacteroides fragilis GA-I7955, read-out: MIC) was 2 µg/mL (≈ 5.14 µM), the MIC ([1]; Bacteroides fragilis, Bacteroides fragilis GAI10150, read-out: MIC) was 0.5 µg/mL (≈ 1.28 µM) and the MIC ([1]; Bacteroides fragilis, Bacteroides fragilis GAI30079, read-out: MIC) was 8 µg/mL (≈ 20.5 µM). The MIC ([1]; Bacteroides fragilis, Bacteroides fragilis GAI30144, read-out: MIC) was 2 µg/mL (≈ 5.14 µM), the MIC ([1]; Bacteroides fragilis, NCTC10581, Bacteroides fragilis NCTC10581, read-out: MIC) was 0.5 µg/mL (≈ 1.28 µM) and the MIC ([1]; Bacteroides ovatus, ATCC8483, Bacteroides ovatus ATCC8483, read-out: MIC) was 1 µg/mL (≈ 2.57 µM). The MIC ([1]; Bacteroides thetaiotaomicron, ATCC29741, Bacteroides thetaiotaomicron ATCC29741, read-out: MIC) was 2 µg/mL (≈ 5.14 µM), the MIC ([1]; Bacteroides uniformis, ATCC8492, Bacteroides uniformis ATCC8492, read-out: MIC) was 1 µg/mL (≈ 2.57 µM) and the MIC ([1]; Campylobacter gracilis, JCM8538, Campylobacter gracilis JCM8538, read-out: MIC) was at most 0.03 µg/mL. The MIC ([1]; Campylobacter ureolyticus, NCTC10941, Bacteroides ureolyticus NCTC10941, read-out: MIC) was at most 0.03 µg/mL, the MIC ([1]; Capnocytophaga ochracea, Capnocytophaga ochracea GAI5586, read-out: MIC) was at most 0.03 µg/mL and the MIC ([1]; Desullomonas pigra DSM749, read-out: MIC) was 0.06 µg/mL (≈ 0.154 µM). The MIC ([1]; Fusobacterium necrophorum, ATCC25286, Fusobacterium necrophorum ATCC25286, read-out: MIC) was 0.25 µg/mL (≈ 0.642 µM), the MIC ([1]; Fusobacterium nucleatum, ATCC25586) was 0.125 µg/mL (≈ 0.321 µM) and the MIC ([1]; Fusobacterium varium, ATCC8501, Fusobacterium varium ATCC8501, read-out: MIC) was 0.5 µg/mL (≈ 1.28 µM). For the same compound, the MIC ([1]; Hoylesella oralis, ATCC33269, Prevotella oralis ATCC33269, read-out: MIC) was 2 µg/mL (≈ 5.14 µM), the MIC ([1]; Parabacteroides distasonis, ATCC8503, Bacteroides distasonis ATCC8503, read-out: MIC) was 0.25 µg/mL (≈ 0.642 µM) and the MIC ([1]; Phocaeicola vulgatus, ATCC8482, Bacteroides vulgatus ATCC8482, read-out: MIC) was 0.25 µg/mL (≈ 0.642 µM). For the same compound, the MIC ([1]; Porphylomonas gingivalis ATCC33277, read-out: MIC) was 0.06 µg/mL (≈ 0.154 µM), the MIC ([1]; Porphyromonas asaccharolytica, ATCC25260, Porphyromonas asaccharolytica ATCC25260, read-out: MIC) was 0.06 µg/mL (≈ 0.154 µM) and the MIC ([1]; Prevotella bivia, ATCC29303, Prevotella bivia ATCC29303, read-out: MIC) was 16 µg/mL (≈ 41.1 µM). It also gave an MIC ([1]; Prevotella buccaeATCC33574, read-out: MIC) of 2 µg/mL (≈ 5.14 µM), an MIC ([1]; Prevotella corporis, Prevotella corporis GAI91000, read-out: MIC) of 1 µg/mL (≈ 2.57 µM) and an MIC ([1]; Prevotella heparinolytica, ATCC35895) of 0.125 µg/mL (≈ 0.321 µM). It also gave an MIC ([1]; Prevotella melaninogenica, Prevotella melaninogenica GAI5490, read-out: MIC) of 1 µg/mL (≈ 2.57 µM), an MIC ([1]; Segatella oris, ATCC33573, Prevotella oris ATCC33573, read-out: MIC) of 0.5 µg/mL (≈ 1.28 µM) and an MIC ([1]; Sutterella wadsworthensis, ATCC51579, Sutterella wadsworthensis ATCC51579, read-out: MIC) of 2 µg/mL (≈ 5.14 µM). It also gave an MIC ([1]; Veillonella dispar, ATCC17748, Veillonella dispar ATCC17748, read-out: MIC) of at most 0.03 µg/mL, an MIC ([1]; Veillonella parvula, ATCC10790, Veillonella parvula ATCC10790, read-out: MIC) of 0.06 µg/mL (≈ 0.154 µM) and an MIC50 (Escherichia coli; Escherichia coli) of at most 0.03 µg/mL. The MIC90 (Escherichia coli; Escherichia coli) was 0.25 µg/mL (≈ 0.642 µM), the “MIC Range” value (Escherichia coli) was at most 0.03 to 64 µg/mL and the MIC50 (Proteus mirabilis) was 0.25 µg/mL (≈ 0.642 µM). For the same compound, the MIC90 (Proteus mirabilis) was 16 µg/mL (≈ 41.1 µM), the “MIC distribution (µg/ml) 0.03” value (Enterococcus faecalis) was 2 and the “MIC distribution (µg/ml) 0.06” value (Enterococcus faecalis) was 2. For the same compound, the “MIC distribution (µg/ml) 0.125” value (Enterococcus faecalis) was 24, the “MIC distribution (µg/ml) 0.25” value (Enterococcus faecalis) was 22 and the “MIC distribution (µg/ml) 1” value (Enterococcus faecalis) was 2. For the same compound, the “MIC distribution (µg/ml) 2” value (Enterococcus faecalis) was 1, the “MIC distribution (µg/ml) 4” value (Enterococcus faecalis) was 5 and the “MIC distribution (µg/ml) 8” value (Enterococcus faecalis) was 9. The “MIC distribution (µg/ml) 16” value (Enterococcus faecalis) was 5, the “MIC distribution (µg/ml) ≤0.015” value (Enterococcus faecalis) was 0 and the “MIC distribution (µg/ml) ≥32” value (Enterococcus faecalis) was 4. The MIC50 (Enterococcus faecalis; Enterococcus faecalis, n = 81 isolates, read-out: MIC50) was 0.25 µg/mL (≈ 0.642 µM), the MIC90 (Enterococcus faecalis; Enterococcus faecalis, n = 81 isolates, read-out: MIC90) was 16 µg/mL (≈ 41.1 µM) and the “MIC distribution (µg/ml) 0.5” value (Enterococcus faecalis; number of isolates at MIC 0.5 µg/ml, n = 81) was 5.
